According to paper PMC6326523, “A high-throughput screen to identify novel small molecule inhibitors of the Werner Syndrome Helicase-Nuclease (WRN)” (PLoS ONE, 2019):

Assays:
[1] = biological target: T1, GST-WRN500-946 helicase domain fragment (Homo sapiens, UniProt Q14191); assay: High-throughput fluorometric helicase screen, PubChem AID 651768; type: biochemical; conditions: initial qHTS; 20 nM GST-WRN500-946; 100 nM FORKF; NA = Not Active; read-out: IC50 (μM) Assay ID 651768
T1 construct: made in house; host or cells: insect cells
Experimental: (§1) The structures of the members of this collection are available in the PubChem portal https://pubchem.ncbi.nlm.nih.gov/. For both the 350,000 small molecule collection and the LOPAC^1280 screens, 3 μL of GST-WRN500-946 or reaction buffer only were dispensed using a solenoid-valve nanoliter dispenser into a black 1536-well plate (Greiner). Twenty three nL of each serially diluted compound (0.08–50 μM for the LOPAC screen and 0.003–114 μM for the larger library screen) or control were added to each well using a Kalypsys pintool equipped with a 1536-pin array. Plates were incubated at room temperature for 15 min, followed by initiation of the reactions via the addition of 1 μL of substrate (100 nM FORKF and 2 mM ATP final concentrations). Plates were transferred to a ViewLux high-throughput CCD imager and fluorescence was measured in kinetic mode using an excitation filter of 525 nm and emission filter of 598 nm.
(§2) Zʹ factor, a measure for assay quality control was calculated using the formula Z′ = 1−(3σS^++3σS^−)∕|μS^+−μS^−| as described previously. In this formula, 3σS^+ represents 3 standard deviations from the mean of positive signals while 3σS^− represents 3 standard deviations from the mean of negative signals. μS^+ and μS^− represent the mean of positive signals and negative signals respectively. Percent activity was derived using in-house software (http://tripod.nih.gov/curvefit/). Dose-response curves were classified as described previously.
(§3) A collection of approximately 350,000 compounds is available for screening which has been assembled from multiple sources to provide diverse chemical scaffolds with known purity, identity and solubility. To perform the high-throughput screen of these compounds, we needed to produce approximately 50 milligrams of recombinant WRN helicase fragment. To accomplish this, we cloned the helicase domain fragment into several plasmids for either insect cell or bacterial expression to optimize expression and yield. We selected expression plasmids for insect cell expression with either a GST or MBP tag (image A in S1 Fig) and purified the protein (image B in S1 Fig). The GST-WRN500-946 fragment isolated from insect cells was used in the high throughput screen with the conditions described in Fig 2C (20 nM GST-WRN500-946, 100 nM FORKF DNA substrate) and a summary of the results can be found on PubChem (National Center for Biotechnology Information. PubChem BioAssay Database; Assay Identifier (AID) = 651768, https://pubchem.ncbi.nlm.nih.gov/bioassay/651768). […] To verify the active compounds, approximately 600 hit molecules were retested in a confirmatory screen also found on PubChem (National Center for Biotechnology Information. PubChem AID = 720497, https://pubchem.ncbi.nlm.nih.gov/bioassay/720497). Of these, a little less than four hundred compounds were confirmed as active compounds.

[2] = biological target: T1, GST-WRN500-946 helicase domain fragment; assay: Confirmatory fluorometric helicase screen, PubChem AID 720497; type: biochemical; conditions: 20 nM GST-WRN500-946, 100 nM FORKF, NA = Not Active, read-out: IC50 (μM) Assay ID 720497
Experimental: as §1, §2, §3

HeLa 1.2.11 cells = assay: HeLa cell proliferation assay (WST-1); type: cell-based, human; conditions: 50 μM, 3-day time course
Experimental: WRN inhibitors were diluted in DMSO to a concentration 100-fold higher than their final concentrations. U2-OS cells in culture were counted, spun down and resuspended to 35,000 cells/mL in DMEM with 10% FBS and Pen/Strep antibiotic. For each cell condition, 15 μL of DMSO or inhibitor was added to 1.5 ml of U2-OS cells in DMEM or DMEM alone. One hundred μL of each cell condition was plated in triplicate on each of four 96-well plates representing days 0–3. Ten μL of WST-1 cell proliferation reagent (Roche) was added to the day 0 plate and readings were taken 2 hr later using a plate reader set to 450 nm. WST-1 cell proliferation reagent was added to plates on days 1–3 and readings were taken after 2 hr incubation. Percent cell proliferation was normalized to cells in the presence of DMSO with the background OD450 of DMEM with each drug subtracted out. […]
Fig 9 Effects of WRN helicase inhibitors on cancer cell proliferation. (A) Cell proliferation of HeLa 1.2.11 cells treated with 50 μM NCGC00029283-03, NCGC00063279-03, NCGC00357377-01 and NSC 617145 (positive control) or vehicle (DMSO) on Day 0 and Day 3 as measured using the WST-1 cell proliferation reagent. […]

[3] = test system: Hematopoietic Protein Tyrosine Phosphatase (HePTP); parameters: method as in PMID 22070201; conditions: separate high-throughput screen; cited from earlier work
polymerases = test system: polymerases; parameters: method as in PubChem; conditions: review of PubChem data from previously-conducted screens; ref PubChem; cited from earlier work
BLM helicase fragment = test system: BLM helicase fragment; parameters: method as in PubChem; conditions: review of PubChem data from previously-conducted screens; ref PubChem; cited from earlier work

T1 sequence (Q14191 500-946): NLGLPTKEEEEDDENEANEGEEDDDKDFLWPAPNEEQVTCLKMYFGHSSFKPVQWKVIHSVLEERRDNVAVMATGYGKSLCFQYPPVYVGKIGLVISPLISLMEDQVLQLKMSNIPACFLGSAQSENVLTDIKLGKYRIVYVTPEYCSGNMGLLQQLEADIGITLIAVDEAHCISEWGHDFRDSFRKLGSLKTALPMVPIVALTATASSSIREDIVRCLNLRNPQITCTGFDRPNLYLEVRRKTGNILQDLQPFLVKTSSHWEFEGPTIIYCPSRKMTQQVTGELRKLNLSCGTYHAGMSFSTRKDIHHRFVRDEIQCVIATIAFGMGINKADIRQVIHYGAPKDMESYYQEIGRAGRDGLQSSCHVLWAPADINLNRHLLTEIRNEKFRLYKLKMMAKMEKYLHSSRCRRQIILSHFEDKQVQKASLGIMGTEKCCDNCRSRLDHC

Structure (SMILES) | IC50 [1] | IC50 [2] | Effect on HeLa 1.2.11 cell proliferation (HeLa 1.2.11 cells) | Inhibition of HePTP [3] | Activity against polymerases in high-throughput screens (polymerases) | Activity against BLM helicase fragment in high-throughput screens (BLM helicase fragment)
Cc1ccc(-c2csc(NS(=O)(=O)c3cccc(F)c3)n2)o1 [MLS002251300-02] | 31.6 µM | 24.1 µM | did not reduce cell proliferation |  |  | 
COc1ccc2nc(O)c(-c3noc(-c4ccc(F)cc4)n3)cc2c1 [NCGC00029283-02] | 50 µM |  |  | inhibited | some activity | no activity
COc1ccc2nc(O)c(-c3noc(-c4ccccc4)n3)cc2c1 [NCGC00063279-02] | 21.5 µM | 21.5 µM |  | inhibited | some activity | no activity
